Laboratory results as given in PMC9610617, “Anti-HIV Ermiasolides from Croton megalocarpus” (Molecules, 2022).
Values after ≈ are worked out from the molar mass of the structure shown. Values joined by “and” are separate entries in the source; they are usually repeats but may differ in a detail not shown here. Equal values may be shown once. Read-outs that look alike come from different tables or passages of the source.

Key:
[1] = tested on: human T-lymphocytic MT-4 cells; assay: in vitro; conditions: MT-4 cells, 5 days, MTT, mean ± S.E.M, n = 3; for MNTC, maximum nontoxic concentration: concentration with cell viability above 80% (CC20)
From the text: (§1) In this study, human T-lymphocyte MT-4 cells (ARP-120) were obtained from the National Institute of Health (NIH) HIV Reagent Program, Division of AIDS, National Institute of Allergy and Infectious Diseases (NIAID), NIH; donated by Dr. Douglas Richman. Human T-lymphocytic MT-4 cells express CD4, CXCR4 and CCR5 and are used for cytotoxicity inhibition assays for antiviral drugs. The vials containing frozen MT-4 cells were retrieved from the liquid nitrogen tank and rapidly thawed. In a tissue culture laminar flow hood, the exterior of the vials was decontaminated by spraying 70% ethanol. […] The CCM was sterilized with a 0.22 µm membrane filter before use. The cultures were incubated at 37 °C in a humidified incubator with atmospheric conditions of 5% CO2. […] The cell count and viability were measured by the trypan blue dye exclusion technique.
(§2) The cytotoxicity test was conducted to evaluate the cytotoxicity of the plant extracts by measuring cell death caused by the plant extracts. The assay was conducted using an MTT colorimetric assay as described by. The MTT assay is based on the reduction of the yellow-colored tetrazolium salt MTT 3-(4,5-dimethylthiazol-2-yl)-2,5-diphenyltetrazolium bromide) by NAD(P)H-dependent cellular oxidoreductase enzymes to an insoluble dark-blue colored formazan that can be measured spectrophotometrically. Formazan production indicates the number of viable cells; therefore, an increase or decrease in cellular viability results in a change in the amount of formazan formed, which indicates the degree of cellular cytotoxicity (CC50) caused by the plant extract.
(§3) MTT (3-(4,5-dimethylthiazol-2-yl)-2,5-diphenyl tetrazolium bromide) was dissolved in PBS to obtain a final concentration of 5 mg/mL and filtered to sterilize and remove insoluble residue. The assay was carried out in 96-well, flat-bottomed microtiter plates. To each well, 200 µL of MT-4 cells (1 × 10^5 cells) in growth media was added. The plates were preincubated for 24 h at 37 °C to allow stabilization. Then, 50 μL of the test compounds (at a concentration of 4 mg/mL) were added to the first column of the well. With a multichannel pipette, 50 μL was transferred (in triplicate) from the wells labeled 1 to wells labeled 2, and such transfers were continued (serial dilution), moving from left to right, changing tips prior to mixing contents of the next column of wells. Finally, 50 μL was discarded from the wells in column 12. […] Each dilution was tested in triplicate. The negative control (NC) wells contained 50 µL of MT-4 cells in 0.5% DMSO [39].
(§4) A 96-well microtiter plate containing the test compounds, positive and negative controls was incubated at 37 °C in a humidified atmosphere of 5% CO2 for 5 days. After incubation, 20 μL of MTT reagent (5 mg/mL MTT in phosphate-buffered saline) was added to each test well and control well. The plate was further incubated at 37 °C in a CO2 incubator for 4 h. After 4 h of incubation, 100 μL of DMSO was added to dissolve the dark-blue formazan crystals from surviving cells. After the formazan crystals were dissolved completely, the resulting optical density (OD) readings were measured relative to the controls on an ELISA plate reader at 570 nm at a reference wavelength of 620 nm. […] The concentration that determined cell viability above 80% (CC20) was chosen as the maximum non-toxic concentration (MNTC).

HIV-1IIIB = assay: Anti-HIV activity: inhibition of HIV-induced cytopathic effect in infected MT-4 cells (MTT); format: cell-based, Human immunodeficiency virus type 1; conditions: for IC50: Human immunodeficiency virus 1, MT4, 120 h; for SI, selective index: ratio CC50 (MT-4) / IC50 (HIV-1IIIB)
Method: Human immunodeficiency virus type 1 (HIV-1IIIB) strain was obtained from the NIH HIV Reagent Program, Division of AIDS, NIAID, NIH. Dr. Robert Gallo donated human immunodeficiency virus-1 IIIB (ARP-398). HIV-1IIIB is highly capable of replicating in human T cell lines and appears to be well adapted for in vitro culture in T cells. The frozen HIV-1IIIB vials were thawed by immersion in room temperature water, and the vial was swirled until viruses were thawed. Then, 400 µL of the virus was transferred to 75 cm^2 tissue culture flasks (T75) containing 10 mL of 1 × 10^5 pelleted MT4 cells/mL, vortexed and incubated at 37 °C for 1 hr for virus adsorption. After 1 hr, 20 mL of RPMI-1640 was added gently and mixed with vortexing. The cells were then pelleted by centrifuging at 1500 rpm for 5 min. The pelleted cells were then washed and resuspended in 30 mL RPMI 1640 with L-glutamine and 20% fetal bovine serum in a T75 flask, incubated at 37 °C and monitored for the development of cytopathic effects (CPEs).
The virus infectivity test was performed to determine the infectious titer of the virus, which can cause cytopathic effects (CPE) in tissue culture over a reasonable period of 3 to 10 days while cells in culture remain viable. In addition, this procedure was performed to quantify the amount of virus required to produce a cytopathic effect in 50% of cell culture replicates (TCID50). CPE induced by the virus was observed under a microscope after 3–4 days. The TCID50 was then calculated as described by. For the anti-HIV activity testing, 640 µL of HIV-1IIIB virus at 1.26 × 10^8 TCID50/mL was used to infect 1 × 10^8 cell/mL. All procedures were carried out following biosafety guidelines defined in the BMBL, NIH-CDC HHS Publication No. (CDC) 21-1112 [44].
MT-4 cells suspended at 1 × 10^8 cells/mL were infected with 640 µL of HIV-1IIIB virus at 1.26 × 10^8 TCID50/mL as described in above. After infection, 200 µL HIV-infected MT-4 cells (1 × 10^5 cells/well) in growth media were added to each well. The plates were preincubated for 24 h at 37 °C to allow stabilization. Then, 50 μL of the test compounds (at a concentration of 4 mg/mL) were added to the first column of the well. With a multichannel pipette, 50 μL was transferred (in triplicate) from the wells labeled 1 to wells labeled 2. Such transfers were continued (serial dilution), moving from left to right, changing tips prior to mixing contents of the next column of wells. Finally, 50 μL was discarded from the wells in column 12. Different concentrations ([…]) of test compounds were prepared through serial dilution. Each dilution was tested in triplicate. The microtiter plates were incubated at 37 °C in a 5% CO2 incubator for 5 days. […] After 5 days of incubation, cell viability was determined by the MTT assay as described by.
A dose-response curve was plotted to calculate the concentrations that reduced viral replication by 50% (IC50). […] The efficacy of the test compounds, was determined by calculating the viral inhibition rate (EmaxAV) using Equation (1), as previously described by.

in vitro = conditions: human, MT-4 T-lymphocytic cells
From the text: as §1, §2, §3, §4

[2] = HIV-1IIIB-infected MT-4 cells, 5 days, MTT, mean ± S.E.M, n = 3
[3] = read-out: IC50, 50% antiviral effect concentration, HIV-1IIIB-infected MT-4 cells, 5 days, MTT, mean ± S.E.M, n = 3

Compound | MNTC, maximum nontoxic concentration [1] [µg/mL] | CC50, 50% cytotoxic concentration [1] [µg/mL] | EmaxC, maximum cytotoxic effect % [1] [%] | EmaxAV, maximum antiviral effect % (viral inhibition rate) (HIV-1IIIB; [2]) | IC50 (HIV-1IIIB; HIV-1IIIB-infected MT-4 cells, 5 days, MTT, mean ± S.E.M, n = 3, read-out: IC50, 50% antiviral effect concentration) [µg/mL] | SI, selective index (HIV-1IIIB) | IC50 (HIV-1IIIB; [3]) [µg/mL] | CC50 at 5 days (in vitro) [µg/mL] | IC50, 50% antiviral effect concentration (HIV-1IIIB; [2]) [µg/mL]
Nc1nc(NC2CC2)c2ncn([C@H]3C=C[C@@H](CO)C3)c2n1 [ABC, abacavir, reference compound] | 0.18 ± 0.03 | 0.26 ± 0.00 (≈ 0.908 µM) | 17.83 ± 0.57 | 58.67 ± 0.43% | 0.05 ± 0.031 (≈ 0.175 µM) | 5.0 | – | – | –
Cc1cn([C@H]2C[C@H](N=[N+]=[N-])[C@@H](CO)O2)c(=O)[nH]c1=O [AZT, zidovudine, reference compound] | – | – | – | 83.5 ± 0.57% | – | – | 0.002 (≈ 0.00748 µM) | – | –
CO[C@@]12C[C@]3(C)CCC[C@H](C)[C@@]3(O)CC1=C(C)C(=O)O2 [Compound 1, 5β-Hydroxy-8α-methoxy eudesm-7(11)-en-12,8-olide] | 41.84 ± 0.11 | – | 62.21 ± 0.67 | 93% and 93.4 ± 0.60% | – | 39,872.3 | 0.002 (≈ 0.00713 µM) | 96.77 ± 0.44 (≈ 345 µM) | –
CC1=C2C[C@]3(O)[C@@H](C)CCC[C@@]3(C)C[C@@]2(O)OC1=O [Compound 2, 5β,8α-Dihydroxy eudesm-7(11)-en-12,8-olide] | 4.973 ± 0.25 | – | 81.59 ± 0.41 | 69.5% and 69.51 ± 0.26% | – | 25,339.5 | 0.002 (≈ 0.00751 µM) | 38.4 ± 0.63 (≈ 144 µM) | –
CC1=C2C[C@]3(O)[C@@H](C)CCC[C@@]3(C)C[C@@H]2OC1=O [Compound 3, 5β-Hydroxy-8H-β-eudesm-7(11)-en-12,8-olide] | 64.93 ± 0.26 | – | 65.00 ± 0.01 | 77.5% and 77.46 ± 0.93% | – | 3384.4 | 0.04 (≈ 0.16 µM) | 148.1 ± 0.05 (≈ 592 µM) | 0.044 ± 0.01 (≈ 0.176 µM)
Cc1ccnc2c1NC(=O)c1cccnc1N2C1CC1 [NVP, Nevirapine, reference compound] | 0.57 ± 0.0 | 0.82 ± 0.0 (≈ 3.08 µM) | 39.13 ± 0.65 | 72.53 ± 0.47% | – | 3.5 | 0.24 ± 0.09 (≈ 0.901 µM) | – | –
C[C@H](Cn1cnc2c(N)ncnc21)OCP(=O)(O)O [TDF, tenofovir] | 4.92 ± 0.71 | 6.73 ± 0.24 (≈ 23.4 µM) | 13.17 ± 0.43 | 80.55 ± 0.46% | – | – | 0.04 ± 0.01 (≈ 0.139 µM) | – | –
